In paper PMC6327999, “Hydroxyl-substituted double Schiff-base condensed 4-piperidone/cyclohexanones as potential anticancer agents with biological evaluation” (Journal of Enzyme Inhibition and Medicinal Chemistry, 2019):

The compounds below were run on human cervical carcinoma cells (HeLa) (assay: Cytotoxicity, MTT assay, HeLa). Details: Homo sapiens, HeLa; MTT, 24 hours.
Assay type: cell-based
Excerpt: (§1) Compounds 2a–d, 3a–e, 4a–e, 5a–d, and 6a–c were screened against human neoplastic cell lines such as human lung carcinoma cells (A549), human gastric adenocarcinoma cells (SGC7901), human cervical carcinoma cells (HeLa), human liver hepatocellular carcinoma cell line (Hepg2), human chronic myelogenous leukemia cell line (K562), human acute mononuclear granulocyte leukemia (THP-1), human normal heptical cell line (LO2) (Table 1) using modified MTT assay (3-(4,5-dimethyl-2-thiazolyl)-2,5-diphenyl-2-H-tetrazolium bromide, MTT, Dojindo Laboratories, Tokyo, Japan). All cell lines were maintained at 37 °C in a humidified 5% CO2 and 95% air atmosphere. The HePG2 cell lines were cultured in DMEM containing 10% fetal bovine serum. Other cell lines were grown in medium 1640 and supplemented with 10% fetal bovine serum. […] Controls were prepared with 0.1% DMSO (v/v) only. The cells were seeded in a 96-well plate in 200 µL medium per well at a density of 1 × 10^4 cells/well for 24 hours. The cells were treated with serial concentrations of compound and incubated for 24 hours. Cells with only culture media were used as control. After the media was removed, 20 µL of MTT (5 mg/mL) was added then the plates were incubated for 4 hours at 37 °C in cell culture incubator. The MTT containing media were removed and then 150 µL of DMSO was added to dissolve the dark-blue formazan crystals. The optical density (OD) was measured by a multi-well plate reader (TECAN, Männedorf, Switzerland) at 570 nm. The results are expressed as a decrease in the cell viability (%) in comparison to untreated controls. The concentration of each compound was examined in triplicate, and the IC50 values are expressed in Table 1. The concentrations of the compounds were 50, 20, 10, 5, 2.5, 1, 0.5, 0.1, 0.05 and 0.01 µg/mL. Doxorubicin (DOX) and Curcumin were used as positive controls. […] The concentrations of curcumin used were 100, 50, 25, 12.5, 6.25, 3.125, 1, 0.5 and 0.1 µg/mL.
COc1ccc(/C=N/c2cccc(/C=C3\CCC/C(=C\c4cccc(/N=C/c5ccc(OC)cc5O)c4)C3=O)c2)c(O)c1 [3d] gave an IC50 of 13.1 ± 1 µM. For CN1C/C(=C\c2cc(/N=C/c3cccc(O)c3O)ccc2F)C(=O)/C(=C/c2cc(/N=C/c3cccc(O)c3O)ccc2F)C1 [6a], the IC50 was 2.2 ± 0.2 µM. O=C1/C(=C/c2cccc(/N=C/c3ccccc3O)c2)CCC/C1=C\c1cccc(/N=C/c2ccccc2O)c1 [3a] was tested, and the IC50 was 9.9 ± 0.3 µM.

Same assay, conditions: quotient of the IC50 values towards nonmalignant LO2 cells
COc1ccc(/C=N/c2cccc(/C=C3\CCC/C(=C\c4cccc(/N=C/c5ccc(OC)cc5O)c4)C3=O)c2)c(O)c1 [3d] was tested, and the “HeLa SI” value was 0.9. In the case of CN1C/C(=C\c2cc(/N=C/c3cccc(O)c3O)ccc2F)C(=O)/C(=C/c2cc(/N=C/c3cccc(O)c3O)ccc2F)C1 [6a], the “HeLa SI” value is reported as 9.9. In the case of O=C1/C(=C/c2cccc(/N=C/c3ccccc3O)c2)CCC/C1=C\c1cccc(/N=C/c2ccccc2O)c1 [3a], the “HeLa SI” value is reported as 1.8.

Each compound was assayed on human gastric adenocarcinoma cells (SGC7901) (assay: Cytotoxicity, MTT assay, SGC7901). Details: Homo sapiens, SGC-7901; MTT, 24 hours.
Assay type: cell-based
Excerpt: as §1
For COc1ccc(/C=N/c2cccc(/C=C3\CCC/C(=C\c4cccc(/N=C/c5ccc(OC)cc5O)c4)C3=O)c2)c(O)c1 [3d], the IC50 was 7.1 ± 1 µM. For CN1C/C(=C\c2cc(/N=C/c3cccc(O)c3O)ccc2F)C(=O)/C(=C/c2cc(/N=C/c3cccc(O)c3O)ccc2F)C1 [6a], the IC50 was 2.4 ± 0.1 µM. With O=C1/C(=C/c2cccc(/N=C/c3ccccc3O)c2)CCC/C1=C\c1cccc(/N=C/c2ccccc2O)c1 [3a] the IC50 was 11.4 ± 0.2 µM.

Same assay, conditions: quotient of the IC50 values towards nonmalignant LO2 cells
With COc1ccc(/C=N/c2cccc(/C=C3\CCC/C(=C\c4cccc(/N=C/c5ccc(OC)cc5O)c4)C3=O)c2)c(O)c1 [3d] the “SGC7901 SI” value was 1.6. For CN1C/C(=C\c2cc(/N=C/c3cccc(O)c3O)ccc2F)C(=O)/C(=C/c2cc(/N=C/c3cccc(O)c3O)ccc2F)C1 [6a], the “SGC7901 SI” value was 9.2. O=C1/C(=C/c2cccc(/N=C/c3ccccc3O)c2)CCC/C1=C\c1cccc(/N=C/c2ccccc2O)c1 [3a] was tested, and the “SGC7901 SI” value was 1.6.

The compounds below were run on human lung carcinoma cells (A549) (assay: Cytotoxicity, MTT assay, A549). Details: Homo sapiens, A549; MTT, 24 hours.
Assay type: cell-based
Excerpt: as §1
COc1ccc(/C=N/c2cccc(/C=C3\CCC/C(=C\c4cccc(/N=C/c5ccc(OC)cc5O)c4)C3=O)c2)c(O)c1 [3d] showed an IC50 of 4.1 ± 0.6 µM. CN1C/C(=C\c2cc(/N=C/c3cccc(O)c3O)ccc2F)C(=O)/C(=C/c2cc(/N=C/c3cccc(O)c3O)ccc2F)C1 [6a] gave an IC50 of 1.9 ± 0.1 µM. O=C1/C(=C/c2cccc(/N=C/c3ccccc3O)c2)CCC/C1=C\c1cccc(/N=C/c2ccccc2O)c1 [3a] was tested, and the IC50 was 7.4 ± 0.3 µM.

Same assay, conditions: quotient of the IC50 values towards nonmalignant LO2 cells
For COc1ccc(/C=N/c2cccc(/C=C3\CCC/C(=C\c4cccc(/N=C/c5ccc(OC)cc5O)c4)C3=O)c2)c(O)c1 [3d], the “A549 SI” value was 2.8. In the case of CN1C/C(=C\c2cc(/N=C/c3cccc(O)c3O)ccc2F)C(=O)/C(=C/c2cc(/N=C/c3cccc(O)c3O)ccc2F)C1 [6a], the “A549 SI” value is reported as 11.6. For O=C1/C(=C/c2cccc(/N=C/c3ccccc3O)c2)CCC/C1=C\c1cccc(/N=C/c2ccccc2O)c1 [3a], the “A549 SI” value was 2.5.

What follows are compounds tested on human normal heptical cell line (LO2) (assay: Cytotoxicity, MTT assay, non-malignant LO2). Details: 24 hours, non-malignant cells.
Assay type: cell-based
Excerpt: as §1
COc1ccc(/C=N/c2cccc(/C=C3\CCC/C(=C\c4cccc(/N=C/c5ccc(OC)cc5O)c4)C3=O)c2)c(O)c1 [3d] showed an IC50 of 11.3 ± 0.1 µM. In the case of CN1C/C(=C\c2cc(/N=C/c3cccc(O)c3O)ccc2F)C(=O)/C(=C/c2cc(/N=C/c3cccc(O)c3O)ccc2F)C1 [6a], the IC50 is reported as 21.7 ± 2 µM. Work on O=C1/C(=C/c2cccc(/N=C/c3ccccc3O)c2)CCC/C1=C\c1cccc(/N=C/c2ccccc2O)c1 [3a] yielded an IC50 of 18.2 ± 0.2 µM.

Each compound was assayed on human acute mononuclear granulocyte leukemia (THP-1) (assay: Cytotoxicity, MTT assay, THP-1). Details: Homo sapiens, THP-1; MTT, 24 hours.
Assay type: cell-based
Excerpt: as §1
COc1ccc(/C=N/c2cccc(/C=C3\CCC/C(=C\c4cccc(/N=C/c5ccc(OC)cc5O)c4)C3=O)c2)c(O)c1 [3d] was tested, and the IC50 was 3.2 ± 0.03 µM. CN1C/C(=C\c2cc(/N=C/c3cccc(O)c3O)ccc2F)C(=O)/C(=C/c2cc(/N=C/c3cccc(O)c3O)ccc2F)C1 [6a] gave an IC50 of 1.5 ± 0.2 µM. For O=C1/C(=C/c2cccc(/N=C/c3ccccc3O)c2)CCC/C1=C\c1cccc(/N=C/c2ccccc2O)c1 [3a], the IC50 was 1.5 ± 0.1 µM.

Same assay, conditions: quotient of the IC50 values towards nonmalignant LO2 cells
COc1ccc(/C=N/c2cccc(/C=C3\CCC/C(=C\c4cccc(/N=C/c5ccc(OC)cc5O)c4)C3=O)c2)c(O)c1 [3d] was tested, and the “THP-1 SI” value was 3.6. In the case of CN1C/C(=C\c2cc(/N=C/c3cccc(O)c3O)ccc2F)C(=O)/C(=C/c2cc(/N=C/c3cccc(O)c3O)ccc2F)C1 [6a], the “THP-1 SI” value is reported as 14.2. For O=C1/C(=C/c2cccc(/N=C/c3ccccc3O)c2)CCC/C1=C\c1cccc(/N=C/c2ccccc2O)c1 [3a], the “THP-1 SI” value was 12.4.

What follows are compounds tested on human chronic myelogenous leukemia cell line (K562) (assay: Cytotoxicity, MTT assay, K562). Details: Homo sapiens, K562; MTT, 24 hours.
Assay type: cell-based
Excerpt: as §1
COc1ccc(/C=N/c2cccc(/C=C3\CCC/C(=C\c4cccc(/N=C/c5ccc(OC)cc5O)c4)C3=O)c2)c(O)c1 [3d] showed an IC50 of 3.2 ± 0.02 µM. CN1C/C(=C\c2cc(/N=C/c3cccc(O)c3O)ccc2F)C(=O)/C(=C/c2cc(/N=C/c3cccc(O)c3O)ccc2F)C1 [6a] was tested, and the IC50 was 2.8 ± 0.2 µM. With O=C1/C(=C/c2cccc(/N=C/c3ccccc3O)c2)CCC/C1=C\c1cccc(/N=C/c2ccccc2O)c1 [3a] the IC50 was 3.4 ± 0.01 µM.

Same assay, conditions: quotient of the IC50 values towards nonmalignant LO2 cells
With COc1ccc(/C=N/c2cccc(/C=C3\CCC/C(=C\c4cccc(/N=C/c5ccc(OC)cc5O)c4)C3=O)c2)c(O)c1 [3d] the “K562 SI” value was 3.6. For CN1C/C(=C\c2cc(/N=C/c3cccc(O)c3O)ccc2F)C(=O)/C(=C/c2cc(/N=C/c3cccc(O)c3O)ccc2F)C1 [6a], the “K562 SI” value was 7.7. In the case of O=C1/C(=C/c2cccc(/N=C/c3ccccc3O)c2)CCC/C1=C\c1cccc(/N=C/c2ccccc2O)c1 [3a], the “K562 SI” value is reported as 5.4.

Each compound was assayed on human liver hepatocellular carcinoma cell line (Hepg2) (assay: Cytotoxicity, MTT assay, HePG2). Details: Homo sapiens, HepG2; MTT, 24 hours.
Assay type: cell-based
Excerpt: as §1, with “µg/mL.” for “µg/mL. Doxorubicin (DOX) and Curcumin were used as positive controls.”
Work on COc1ccc(/C=N/c2cccc(/C=C3\CCC/C(=C\c4cccc(/N=C/c5ccc(OC)cc5O)c4)C3=O)c2)c(O)c1 [3d] yielded an IC50 of 4 ± 0.1 µM. Work on CN1C/C(=C\c2cc(/N=C/c3cccc(O)c3O)ccc2F)C(=O)/C(=C/c2cc(/N=C/c3cccc(O)c3O)ccc2F)C1 [6a] yielded an IC50 of 2.6 ± 0.1 µM. Compound O=C1/C(=C/c2cccc(/N=C/c3ccccc3O)c2)CCC/C1=C\c1cccc(/N=C/c2ccccc2O)c1 [3a] has an IC50 of 3.3 ± 0.1 µM.

Same assay, conditions: quotient of the IC50 values towards nonmalignant LO2 cells
In the case of COc1ccc(/C=N/c2cccc(/C=C3\CCC/C(=C\c4cccc(/N=C/c5ccc(OC)cc5O)c4)C3=O)c2)c(O)c1 [3d], the “HePG2 SI” value is reported as 2.9. For CN1C/C(=C\c2cc(/N=C/c3cccc(O)c3O)ccc2F)C(=O)/C(=C/c2cc(/N=C/c3cccc(O)c3O)ccc2F)C1 [6a], the “HePG2 SI” value was 8.4. In the case of O=C1/C(=C/c2cccc(/N=C/c3ccccc3O)c2)CCC/C1=C\c1cccc(/N=C/c2ccccc2O)c1 [3a], the “HePG2 SI” value is reported as 5.6.

The compounds below were run on human carcinoma cell lines A549, SGC7901, HePG2, HeLa, K562, THP-1 (assay: Cytotoxicity, MTT assay, panel of human carcinoma cell lines (average / overall)). Details: Homo sapiens; average over the six carcinoma cell lines; read-out: Ave IC50.
Assay type: cell-based
Excerpt: as §1
The cytotoxicity activities against human carcinoma cell lines A549, SGC7901, HePG2, HeLa, K562, THP-1 and cytotoxicity toward LO2 cell lines were evaluated by MTT method. DOX and curcumin were used as positive control. The selectivity index (SI) is the quotient of the IC50 values towards nonmalignant LO2 cells. […] Especially for 4a–e, 5a–d, and 6a–c, this ratio can reach about 92%.
In the case of COc1ccc(/C=N/c2cccc(/C=C3\CCC/C(=C\c4cccc(/N=C/c5ccc(OC)cc5O)c4)C3=O)c2)c(O)c1 [3d], the IC50 is reported as 5.8 µM. For CN1C/C(=C\c2cc(/N=C/c3cccc(O)c3O)ccc2F)C(=O)/C(=C/c2cc(/N=C/c3cccc(O)c3O)ccc2F)C1 [6a], the IC50 was 2.2 µM. With O=C1/C(=C/c2cccc(/N=C/c3ccccc3O)c2)CCC/C1=C\c1cccc(/N=C/c2ccccc2O)c1 [3a] the IC50 was 6.1 µM.

Same assay, conditions: average over the six carcinoma cell lines
COc1ccc(/C=N/c2cccc(/C=C3\CCC/C(=C\c4cccc(/N=C/c5ccc(OC)cc5O)c4)C3=O)c2)c(O)c1 [3d] was tested, and the “Ave SI” value was 2.5. CN1C/C(=C\c2cc(/N=C/c3cccc(O)c3O)ccc2F)C(=O)/C(=C/c2cc(/N=C/c3cccc(O)c3O)ccc2F)C1 [6a] was tested, and the “Ave SI” value was 10.2. In the case of O=C1/C(=C/c2cccc(/N=C/c3ccccc3O)c2)CCC/C1=C\c1cccc(/N=C/c2ccccc2O)c1 [3a], the “Ave SI” value is reported as 4.9.
